Test results from PMC7456963, “HPLC-Based Activity Profiling for Antiprotozoal Compounds in Croton gratissimus and Cuscuta hyalina” (Frontiers in Pharmacology, 2020).
Like-named read-outs stand apart in the source and are kept apart here.

How the values were obtained:
[1] = test system: L. donovani strain MHOM/ET/67/L82 axenic amastigotes; test: Activity against Leishmania donovani axenic amastigotes (resazurin); type: cell-based; details: for Selectivity index (SI): IC50 in L6 cells divided by IC50 in L. donovani axenic amastigotes: L6 cells vs axenic L. donovani; for IC50: Leishmania donovani, pH 5.4, axenic amastigotes, MHOM/ET/67/L82, pH 5.4, 70 h + 2 h resazurin, mean ± absolute deviation, at least two replicates, read-out: IC50 L. donovani Axenic
Procedure: Amastigotes of L. donovani strain MHOM/ET/67/L82 were grown under an atmosphere of 5% CO2 in air in axenic culture at 37°C in SM medium ([Cunningham, 1977]) at pH 5.4 supplemented with 10% heat-inactivated fetal bovine serum. 50 µL of culture medium was added in the wells of a 96-well plate and serial drug dilutions of eleven three-fold dilution steps covering a final range from 100 to 0.002 μg/ml were prepared. 50 µL culture medium with 2 × 10^5 amastigotes from axenic culture were added to each well. After 70 h of incubation the plates were inspected under an inverted microscope to assure growth of the controls and sterile conditions. 10 μl of resazurin (12.5 mg resazurin dissolved in 100 ml distilled water) were added to each well and the plates incubated for another 2 h. Then the plates were read with a Spectramax Gemini XS microplate fluorometer (Molecular Devices Cooperation, Sunnyvale, CA, USA) using an excitation wavelength of 536 nm and an emission wavelength of 588 nm. Data were analyzed using the software Softmax Pro (Molecular Devices Cooperation, Sunnyvale, CA, USA). Decrease of fluorescence (= inhibition) was expressed as percentage of the fluorescence of untreated control cultures and plotted against the drug concentrations. From the sigmoidal inhibition curves the IC50 values were calculated. Miltefosine was used as positive control drug. Assays were performed in two independent replicates at least.

[2] = test system: L. donovani amastigotes in mouse peritoneal macrophages; test: Activity against Leishmania donovani intramacrophage amastigotes (high-content imaging); type: cell-based; details: Leishmania donovani, Peritoneal macrophage; amastigotes in mouse peritoneal macrophages, 96 h; read-out: IC50 L. donovani Intramacrophage
Procedure: (§1) Macrophages were isolated from the mouse (CDI) peritoneal cavity ([Zhang et al., 2008]) using 2% starch solution as eliciting agent injected 2 day prior to cell harvest. Animal work was carried out according to the rules and regulations for the protection of animal rights (“Tierschutzverordnung”) of the Swiss “Bundesamt für Veterinärwesen” (License number 2374). Mouse peritoneal macrophages (4 × 10^4 in 100 µL RPMI 1640 medium with 10% heat-inactivated FBS) were seeded into wells of a 96-well plate. After 24 h, 2 × 10^5 amastigote L. donovani in 100 µL were added. The amastigotes were taken from an axenic amastigote culture grown at pH 5.4. The medium containing free amastigote forms was removed after 24 h and replaced with fresh medium. The washing step was repeated and afterward the serial drug dilution was prepared with at least 6 dilution steps. Compounds were dissolved in DMSO at 10 mg/ml and further diluted in medium. After 96 h of incubation at 37°C under a 5% CO2 atmosphere, the medium was removed, and cells were fixed by adding 50 µl 4% formaldehyde solution followed by a staining with a 5 µM DRAQ5 solution. Plates were imaged in ImageXpress XLS (MD) microscope using a 20× air objective (635 nm excitation: 690/50 emission). 9 images were collected per well. Automated image analysis was performed with a script developed on Meta Xpress Software (MD). Three outputs were provided for each well: i) number of host cell nuclei; ii) numbers of infected and non-infected host cells; iii) number of parasite nuclei per infected host cell. The IC50 values were calculated based on the infection rate and the numbers of intracellular amastigotes. The cytotoxicity to macrophages was determined in parallel, and IC50 values were calculated based on the numbers of surviving, uninfected macrophages. Miltefosine was used as control. Assays were performed in two independent replicates at least.

[3] = test system: T. b. rhodesiense STIB 900 bloodstream forms; test: Activity against Trypanosoma brucei rhodesiense STIB900 (resazurin); type: cell-based; details: for Selectivity index (SI): IC50 in L6 cells divided by IC50 in T. b. rhodesiense: L6 cells vs T. b. rhodesiense STIB 900; for IC50: Trypanosoma brucei, 70 h, STIB 900 bloodstream forms, 70 h + resazurin, mean ± absolute deviation
Procedure: The stock was originally isolated from a patient and adapted to axenic culture conditions after several mouse passages and cloned. Minimum Essential Medium (50 µl) supplemented with 25 mM HEPES, 1 g/L additional glucose, 1% MEM non-essential amino acids (100×), 0.2 mM 2-mercaptoethanol, 1 mM Na-pyruvate ([Baltz et al., 1985]) and 15% heat inactivated horse serum was added to each well of a 96-well microtiter plate. Serial drug dilutions of eleven 3-fold dilution steps covering a range from 100 to 0.002 μg/ml were prepared. Then 4 × 10^3 bloodstream forms of T. b. rhodesiense STIB 900 in 50 µL were added to each well and the plate incubated for 70 h at 37°C and under a 5% CO2 atmosphere. 10 µL resazurin solution (resazurin, 12.5 mg in 100 ml double-distilled water) was then added to each well and incubation continued for a further 2–4 h ([Räz et al., 1997]). Plates were read with a Spectramax Gemini XS microplate fluorometer (Molecular Devices Cooperation, Sunnyvale, CA, USA) using an excitation wavelength of 536 nm and an emission wavelength of 588 nm. […] Melarsoprol (Arsobal Sanofi-Aventis, received from WHO) was used as control. Assays were performed in two independent replicates at least.

[4] = test system: P. falciparum NF54 erythrocytic stages; test: Activity against Plasmodium falciparum (3H-hypoxanthine incorporation); type: cell-based; details: for Selectivity index (SI): IC50 in L6 cells divided by IC50 in P. falciparum: L6 cells vs P. falciparum NF54
Procedure: In vitro activity against the erythrocytic stages of P. falciparum was determined using a ^3H-hypoxanthine incorporation assay ([Desjardins et al., 1979]), using the drug sensitive NF54 strain ([Ponnudurai et al., 1981]). Compounds were dissolved in DMSO at 10 mg/ml and further diluted in medium before addition to parasite cultures incubated in RPMI 1640 medium without hypoxanthine, supplemented with HEPES (5.94 g/L), NaHCO3 (2.1 g/L), neomycin (100 U/ml), Albumax^R (5 g/L), and washed human red cells A^+ at 2.5% haematocrit (0.3% parasitemia). Serial drug dilutions of 11 three-fold dilution steps covering a range from 100 to 0.002 μg/ml were prepared. The 96-well plates were incubated in a humidified atmosphere at 37°C; 4% CO2, 3% O2, 93% N2. After 48 h, 50 μl of ^3H-hypoxanthine (=0.5 μCi) was added to each well of the plate. The plates were incubated for a further 24 h under the same conditions. The plates were then harvested with a Betaplate™ cell harvester (Wallac, Zurich, Switzerland), the red blood cells transferred onto a glass fibre filter, and lysed with distilled water. The dried filters were inserted into a plastic foil with 10 ml of scintillation fluid and counted in a Betaplate™ liquid scintillation counter (Wallac, Zurich, Switzerland). IC50 values were calculated from sigmoidal inhibition curves by linear regression using Microsoft Excel. Chloroquine (Sigma C6628) was used as control. Assays were performed in two independent replicates at least.

[5] = test system: L-6 cells (rat skeletal myoblasts); test: In vitro cytotoxicity with L-6 cells (resazurin); type: cell-based; details: 70 h + 2 h resazurin, mean ± absolute deviation
Procedure: (§2) Assays were performed in 96-well microtiter plates, each well containing 100 µl of RPMI 1640 medium supplemented with 1% L-glutamine (200 mM) and 10% fetal bovine serum, and 4000 L-6 cells (a primary cell line derived from rat skeletal myoblasts) ([Ahmed et al., 1994]). Serial drug dilutions of 11 three-fold dilution steps covering a range from 100 to 0.002 μg/ml were prepared 24 h post seeding L-6 cells. The plates were incubated for 70 h and inspected under an inverted microscope to assure growth of the controls and sterile conditions. 10 µl of resazurin was then added to each well and the plates incubated for another 2 h. Then the plates were read with a Spectramax Gemini XS microplate fluorometer (Molecular Devices Cooperation, Sunnyvale, CA, USA) using an excitation wavelength of 536 nm and an emission wavelength of 588 nm. The IC50 values were calculated by linear regression and four-parameter logistic regression from the sigmoidal dose inhibition curves using SoftmaxPro software (Molecular Devices Cooperation, Sunnyvale, CA, USA). Podophyllotoxin (Sigma P4405) was used as positive control. All assays were performed in two independent replicates at least. Activities of all compounds were expressed in µM using the formula: […]

[6] = Cytotoxicity to macrophages determined in parallel to the intramacrophage assay; type: cell-based; details: CDI, surviving, uninfected mouse peritoneal macrophages
Procedure: as §1

[7] = In vitro cytotoxicity with L-6 cells (resazurin); type: cell-based, rat; details: rat, L6 cells, 70 h + 2 h resazurin, mean ± absolute deviation
Procedure: as §2

[8] = Plasmodium falciparum, NF54, 72 h, NF54 drug sensitive strain, erythrocytic stages, 72 h, mean ± absolute deviation, read-out: IC50 P. falciparum

Structure (SMILES) | Selectivity index (SI): IC50 in L6 cells divided by IC50 in L. donovani axenic amastigotes [1] | IC50 [1] [µM] | IC50 [2] [µM] | Selectivity index (SI): IC50 in L6 cells divided by IC50 in T. b. rhodesiense [3] | IC50 [3] [µM] | Selectivity index (SI): IC50 in L6 cells divided by IC50 in P. falciparum [4] | IC50 ([4]; NF54 drug sensitive strain, erythrocytic stages, 72 h, mean ± absolute deviation, read-out: IC50 P. falciparum) [µM] | IC50 [4, 8] [µM] | IC50 L6 cells (cytotoxicity) [5] | IC50 at 96 h [6] [µM] | IC50 P. falciparum ([4]; NF54 drug sensitive strain, erythrocytic stages, 72 h, mean ± absolute deviation) | IC50 at 70 h [7] [µM] | IC50 at 70 h ([7]; L-6 cells (rat skeletal myoblasts)) [µM] | IC50 ([4]; Plasmodium falciparum, NF54, 72 h, read-out: IC50 P. falciparum, NF54 drug sensitive strain, erythrocytic stages, 72 h, mean ± absolute deviation) [µM]
COc1ccc(-c2oc3cc(O)cc(O)c3c(=O)c2OC)cc1O [Compound 5, Quercetin-3,4′-dimethylether] | 1.3 | 15 to 22 | > 33.3 | 2.9 | 6.6 ± 3.2 | 1.1 | 18.2 ± 6.7 | < 20 | significant cytotoxicity | 42.7 ± 12.1 | – | – | – | –
COc1cc(C(=O)O)ccc1O [Compound 7, 3-Methoxy-4-hydroxybenzoic acid] | – | 153 ± 45.5 | > 595 | – | 38.6 ± 5.9 | – | – | 138 ± 12.2 | – | > 500 | least active | 595 | – | –
O=C1C[C@@H](c2ccc(O)cc2)Oc2cc(O)cc(O)c21 [Compound 4, Naringenin] | 5.6 | 41.8 ± 9.3 | > 121 | 1.3 | – | 3.2 | – | 73.2 ± 5.9 | – | 333 ± 18.2 | – | – | 233 ± 36.9 | –
COc1cc(O)c2c(=O)c(OC)c(-c3ccc(OC)c(OC)c3)oc2c1 [Compound 3, Retusin] | 6.3 | 34.1 ± 4.7 | > 186 | 2.6 | > 80 | 9.2 | – | 23.4 ± 3.8 | – | 173 | – | 215 ± 4.7 | – | –
COc1ccc(CC2c3cc(OC)c(OC)cc3CCN2C)cc1OC (stereo not shown) [Compound 9, Laudanosine] | – | > 150 | > 186 | – | > 80 | – | – | – | – | > 245 | – | 280 | – | 76.1 ± 21.6
